Experimental data: patent EP1849783A1, “Octahydropentalene-substituted pyrazoline compounds, their preparation and use as medicaments” (LABORATORIOS DEL DR. ESTEVE, S.A., priority 2006, dated 2007)
Structures can show the parent of a compound that is named as a salt.

Columns and labels:
cannabinoid receptors = assay: Mouse tetrad model, antagonistic activity against Win 55212-2; format: in vivo, Male NMRI mice; conditions: against Win 55212-2 (1.25 mg/kg intravenous), substance injected 5 minutes before the agonist, mice
Text: Substances with affinity for cannabinoid receptors are known to produce a wide range of pharmacological effects. It is also known that intravenous administration of a substance with affinity for cannabinoid receptors in mice produces analgesia , hypothermia, sedation and catalepsy. Individually, none of these effects can be considered as proof that a tested substance has affinity for cannabinoid-receptors, since all of these effects are common for various classes of centrally active agents. However, substances, which show all of these effects, i.e. substances that are active in this so-called tetrad model are considered to have affinity for the cannabinoid receptors. It has further been shown that cannabinoid receptor antagonists are higly effective in blocking the effects of a cannabinoid agonist in the mouse tetrad model.
The tetrad model is described, for example, in the publication of A. C. Howlett et al, International Union of Pharmacology XXVII. Classification of Cannabinoid Receptors, Pharmacol Rev 54, 161-202, 2002 and David R. Compton et al., "In-vivo Characterization of a Specific Cannabinoid Receptor Antagonist (SR141716A) Inhibition of Tetrahydrocannbinol- induced Responses and Apparent Agonist Activity", J. Pharmacol. Exp. Ther. 277 , 2, 586-594, 1996. The corresponding parts of the description are hereby incorporated by reference. […]
Before testing in the behavioral procedures given below, mice are acclimatized to the experimental setting. Pre-Treatment control values are determined for analgesia hot plate latency (in seconds), rectal temperature, sedation and catalepsy.
In order to determine the agonistic activty of the substance to be tested, the mice are injected intravenously with the substance to be tested or the vehicle alone. 15 minutes after injection, latency in hot plate analgesia is measured. Rectal temperature, sedation and catalepsy are measured 20 minutes after injection.
In order to determine the antagonistic activity the identical procedure is used as for the determination of the agonistic effects, but with the difference that the substance to be evaluated for its antagonistic activity is injectected 5 minutes before the intravenous injection of 1.25 mg/kg Win-55,212 a known cannabinoid-receptor agonist.
The hot plate analgesia is determined according to the method described in Woolfe D. et al. "The evaluation of analgesic action of pethidine hydrochloride (Demerol)", J. Pharmacol. Exp. Ther. 80, 300-307,1944. […]
The mice are placed on a hot plate (Harvard Analgesimeter) at 55 ± 0.5 °C until they show a painful sensation by licking their paws or jumping and the time for these sensations to occur is recorded. This reading is considered the basal value (B). […]

[1] = molecular target: T1, transfected human CB1 receptors (Homo sapiens, UniProt P21554); assay: in-vitro determination of affinity to CB1-Receptor (radioligand binding); conditions: transfected human CB1 receptors of Receptor Biology, Inc.; radioligand [^3H]-CP55940; read-out: CB1-Receptor Radiologand :[^3H]-CP55940 IC50
T1 construct: purchased Receptor Biology, Inc
Procedure: The in-vitro determination of the affinity of the inventive quaternary ammonium salts of substituted pyrazoline compounds to CB1/CB2-Rezeptors is carried out as described in the publication of Ruth A. Ross, Heather C. Brockie et al., "Agonist-inverse agonist characterization at CB1 and CB2 cannabinoid receptors of L-759633, L759656 and AM630", British Journal of Pharmacology, 126, 665-672, (1999), whereby the transfected human CB1 and CB2 receptors of Receptor Biology, Inc. are used. The radioligand used for both receptors is [^3H]-CP55940. The respective parts of the description are hereby incorporated by reference and forms part of the present disclosure.

T1 sequence (P21554 whole entry): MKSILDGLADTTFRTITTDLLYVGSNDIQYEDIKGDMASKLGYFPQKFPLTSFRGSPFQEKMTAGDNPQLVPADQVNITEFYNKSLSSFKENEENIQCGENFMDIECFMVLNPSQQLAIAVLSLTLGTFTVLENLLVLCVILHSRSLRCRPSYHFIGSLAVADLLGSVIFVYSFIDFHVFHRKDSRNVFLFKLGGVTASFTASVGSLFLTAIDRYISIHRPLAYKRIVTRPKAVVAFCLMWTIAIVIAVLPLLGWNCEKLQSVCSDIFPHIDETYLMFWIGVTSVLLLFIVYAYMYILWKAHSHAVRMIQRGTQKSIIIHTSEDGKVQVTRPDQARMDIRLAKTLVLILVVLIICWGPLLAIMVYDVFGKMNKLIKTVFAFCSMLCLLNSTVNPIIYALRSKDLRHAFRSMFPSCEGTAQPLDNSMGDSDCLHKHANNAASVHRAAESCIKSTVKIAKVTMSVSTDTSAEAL

Row | SMILES | Antagonistic Effect in (%) (cannabinoid receptors; 1.25 mg/kg) | IC50 [1] | Antagonistic Effect in (%) (cannabinoid receptors)
1 | O=C(NN1CC2CCCC2C1)C1=NN(c2ccc(Cl)cc2Cl)C(c2ccc(Cl)cc2)C1 (stereo not shown) [1 (HCl)] | 117 ± 3% | 70.8 nM | 
2 | O=C(NN1CC2CCCC2C1)C1=NN(c2ccc(Cl)cc2Cl)[C@@H](c2ccc(Cl)cc2)C1 (stereo partly drawn) [Example 2, (R)-5-(4-chlorophenyl)-1-(2,4-dichlorophenyl)-N-(hexahydrocyclopenta[c]pyrrol-2(1H)-yl)-4,5-dihydro-1H-pyrazole-3-carboxamide] |  | 15.8 nM | 125.9%
3 | O=C(NN1CC2CCCC2C1)C1=NN(c2ccc(Cl)cc2Cl)C(c2ccc(Cl)cc2)C1 (stereo not shown) [Example 1, 5-(4-chlorophenyl)-1-(2,4-dichlorophenyl)-N-(hexahydrocyclopenta[c]pyrrol-2(1H)-yl)-4,5-dihydro-1H-pyrazole-3-carboxamide] | 122 ± 4% | 12.6 nM | 
4 | O=C(NN1CC2CCCC2C1)C1=NN(c2ccc(Cl)cc2Cl)C(c2ccc(Br)cc2)C1 (stereo not shown) [Example 4, 5-(4-bromophenyl)-1-(2,4-dichlorophenyl)-N-(hexahydrocyclopenta[c]pyrrol-2(1H)-yl)-4,5-dihydro-1H-pyrazole-3-carboxamide] |  |  | 121 ± 4%
